# No end group written: not given here.
# Legend:
# J774 macrophages = experiment: Cholesterol efflux assay; assay type: cell-based, mouse
# Description: The mouse macrophage-like cell line J774 (ATCC TIB-67), loaded with ^3H-cholesterol, was used for cholesterol efflux to acceptors (RG54 or ApoA-I) as previously described.
# To investigate the functionality of the RG54 peptide in a physiological context, cholesterol efflux from J774 macrophages was employed. Cultured macrophages were loaded with radioactive cholesterol, then incubated for 2 or 4 h with RG54 peptide or ApoA-I at the shown concentrations, followed by quantification of the amount of effluxed ^3H-cholesterol (Fig. 1a,b). […] As most circulating ApoA-I is bound to lipids in various species of HDL, and as the RG54 peptide was shown in the lipid clearance assay to efficiently associate with lipids, we reasoned that lipidation of the RG54 peptide might improve its catalytic activity. To explore this, RG54 was first incubated with lipids as described in ESM Fig. 4d, followed by comparative analyses of the catalytic capacities in cholesterol efflux from cholesterol-loaded macrophages.
# Fig. 1 Cholesterol efflux activity of RG54 compared with ApoA-I. (a, b) Concentration dependence of cholesterol efflux from ^3H-cholesterol-labelled J774 cells by lipid-free RG54 or ApoA-I was measured after 2 h (a) or 4 h (b). n=5 for both. Vmax (c) and KM (d) were calculated using the Michaelis–Menten equation. (e–g) Efflux activity of lipid-free (LF) and lipid-bound (LB) RG54 was compared after 2 h. n=3. An acyl CoA:cholesterol O-acyltransferase (ACAT) inhibitor and 8-(4-chlorophenylthio; CPT)-cAMP were used in all experiments to prevent formation of cholesteryl esters of ^3H-cholesterol and to induce expression of ABCA1, respectively. Values are means ± SEM. **p≤0.01, ***p≤0.001
# Akt and AMPK signalling = experiment: Tissue signalling by western blotting; assay type: in vivo, mouse; conditions: soleus muscle, heart muscle and adipose depots in lean mice; 12 mg/kg i.p., 2.5 h; n=4
# Description: Soleus, heart and fat samples were collected from male C57BL/6NTac mice (Taconic, Ejby, Denmark) after 12 h fasting at 9 weeks of age. The effect of RG54 on Akt and AMPK signalling in vivo was then measured by western blot using the following antibodies (all sourced from Cell Signaling Technology/Bionordika, Stockholm, Sweden): pAKT (#4060, 1:2000), Akt (#4691, 1:1000), pAMPK (#2535, 1:1000), AMPK (#2603, 1:1000) and GAPDH (#D16H11, 1:1000). All antibodies were diluted in Tris-buffered saline (154 mmol/l NaCl) with Tween-20 containing 1% BSA and were validated by the manufacturer. See ESM Methods for more details.
# In vitro: glucose uptake measurements
# C2C12 […] myoblasts (ATCC #CRL-1772) were grown in DMEM (ATCC) supplemented with 10% FBS (Sigma) and 1% Penicillin, Streptomycin and Amphotericin B (Invitrogen) and maintained at 37°C and 5% CO2. Differentiation to myotubes was achieved by switching from growth media to 2% FBS DMEM for 7 days. […]
# No statistical methods were used to predetermine sample sizes, but sample sizes are similar to those reported in the field. […] Group allocation was blinded for all mouse work when possible (such as collection of blood or tissues, sample quantification and analysis, and atherosclerosis scoring). […]
# protein concentrations were analysed with Bradford protein assay. […]
substance,measurement,setting,value
Ac-AEYHAKATEHLSTLSEKAKPALEDLRQGLLPVLESFKVSFLSALEEYTKKLNTQ [RG54],"Vmax of cholesterol efflux, lipid-bound vs lipid-free","J774 macrophages; RG54 first incubated with lipids (DMPC), 2 h, n=3",twofold increase
same,Vmax of cholesterol efflux,"J774 macrophages; lipid-free RG54 compared with ApoA-I, Michaelis-Menten, n=5",significantly lower
same,cholesterol efflux,"J774 macrophages; lipid-free, 3H-cholesterol-loaded J774, 2 or 4 h, ACAT inhibitor and CPT-cAMP, n=5",dose-dependent manner
same,AMPK and Akt phosphorylation,Akt and AMPK signalling,minor to no changes
